From patent US10550165B2, “Peptide for inducing regeneration of tissue and use thereof” (STEMRIM INC., priority 2011, dated 2020) come the findings set out here.

The test system of the first experiment is mouse bone marrow mesenchymal stem cell line (MSC-1 cells), PDGFRα-positive. Put plainly: Migration assay (Boyden / 48-well chemotaxis chamber) on bone marrow mesenchymal stem cell line MSC-1. Type of experiment: cell-based. Conditions: peptides produced using HEK293, concentration not stated. The protocol:
Cells of a mouse bone marrow mesenchymal stem cell line (MSC-1 cells, established by Tamai et al. of Osaka University (PDGFRα-positive cells in bone marrow are mobilized by high mobility group box 1 (HMGB1) to regenerate injured epithelia. (Tamai et al., Proc Natl Acad Sci USA. Apr. 4, 2011))) were detached from dishes using trypsin, and collected by centrifugation at 1200 rpm and 4° C. for 10 minutes. The resulting pellet was loosened and suspended at a cell concentration of 2.0×10^6 to 3.0×10^6 cells/ml by adding Dulbecco's Modified Eagle Medium (D-MEM) containing 10% fetal bovine serum (FBS). The recombinant protein and peptides produced in HEK293 were diluted with D-MEM containing 10% FBS. The negative control used was phosphate buffered saline (PBS). An acrylic Boyden chamber was used; cells of the mouse bone marrow mesenchymal stem cell line prepared at a cell concentration of 3×10^6 cells/ml were placed in its upper layer, while a diluted protein or peptide is added to the bottom layer. More specifically, a 28 μl aliquot of a protein or peptide solution was added to each well of the bottom plate of a 48-well chemotaxis chamber (NEURO PROBE 48WELL CHEMOTAXIS CHAMBER), and a polycarbonate membrane with 8 μm pores (Neuro Probe, Inc, Cat: 866-417-0014) was placed on the bottom plate. Then, an upper plate was placed on the membrane and screwed tightly. 50 μl of cells of the mouse bone marrow mesenchymal stem cell line after concentration adjustment were added to the upper plate wells. The chamber was placed in an incubator under 5% CO2 at 37° C. After four hours, the membrane was removed from the chamber and stained with Diff-Quik (Sysmex, Cat: 16920) to detect cells that migrated through membrane pores to the lower compartment.
The peptides listed below were custom synthesized using the solid phase method by Medical & Biological Laboratories (MBL). The peptides were synthesized based on the mouse HMGB1 sequence (SEQ ID NO: 3). Synthetic peptides described in subsequent Examples were also prepared based on the mouse HMGB1 sequence. • A synthetic peptide consisting of the amino acid sequence from positions 1 to 10 of HMGB1 (1-10); • a synthetic peptide consisting of the amino acid sequence from positions 1 to 34 of HMGB1 (1-34); • a synthetic peptide consisting of the amino acid sequence from positions 37 to 62 of HMGB1 (37-62); • a synthetic peptide consisting of the amino acid sequence from positions 27 to 62 of HMGB1 (27-62); • a synthetic peptide consisting of the amino acid sequence from positions 56 to 72 of HMGB1 (56-72); • a synthetic peptide consisting of the amino acid sequence from positions 11 to 20 of HMGB1 (11-20); • a synthetic peptide consisting of the amino acid sequence from positions 11 to 25 of HMGB1 (11-25); • a synthetic peptide consisting of the amino acid sequence from positions 11 to 30 of HMGB1 (11-30); • a synthetic peptide consisting of the amino acid sequence from positions 11 to 34 of HMGB1 (11-34); • a synthetic peptide consisting of the amino acid sequence from positions 11 to 44 of HMGB1 (11-44); • a synthetic peptide consisting of the amino acid sequence from positions 17 to 44 of HMGB1 (17-44); • a synthetic peptide consisting of the amino acid sequence from positions 1 to 25 of HMGB1 (1-25); and the whole mouse HMGB1 produced in HEK293 (1-215(HEK)) as a positive control were adjusted to 100 μg/ml and placed in the lower layer of a chemotaxis chamber to assess the migration-promoting activity on bone marrow mesenchymal stem cell line (MSC-1). Results
As positive controls, centrifuged supernatant of the skin of a one-day-old mouse (one individual) incubated in PBS at 4° C. for 12 hours, and the whole mouse HMGB1 (HMGB1(HEK_1-215)) produced in HEK293 were used. […]
Regarding “1-42: peptide comprising the amino acid sequence of positions 1 to 42, produced using HEK293 (MGKGDPKKPRGKMSSYAFFVQTCREEHKKKHPDASVNFSEFS; UniProt P63158 1-42, looked up, fragment)”, the “activity of promoting the migration of MSC-1” value (“activity … of MSC-1” for short) is recorded as “showed the activity of promoting the migration of bone marrow mesenchymal stem line MSC-1”. Consider “1-43: peptide comprising the amino acid sequence of positions 1 to 43, produced using HEK293 (MGKGDPKKPRGKMSSYAFFVQTCREEHKKKHPDASVNFSEFSK; UniProt P09429 1-43, looked up, fragment)”, for which the “activity … of MSC-1” value was “showed the activity of promoting the migration of bone marrow mesenchymal stem line MSC-1”. The same measure, in the same setting: the entry for “1-45: peptide comprising the amino acid sequence of positions 1 to 45, produced using HEK293 (MGKGDPKKPRGKMSSYAFFVQTCREEHKKKHPDASVNFSEFSKKC; UniProt P63158 1-45, looked up, fragment)” is “showed the activity of promoting the migration of bone marrow mesenchymal stem line MSC-1”; for “1-46: peptide comprising the amino acid sequence of positions 1 to 46, produced using HEK293 (MGKGDPKKPRGKMSSYAFFVQTCREEHKKKHPDASVNFSEFSKKCS; UniProt P63158 1-46, looked up, fragment)” it is “showed the activity of promoting the migration of bone marrow mesenchymal stem line MSC-1”; for “1-47: peptide comprising the amino acid sequence of positions 1 to 47, produced using HEK293 (MGKGDPKKPRGKMSSYAFFVQTCREEHKKKHPDASVNFSEFSKKCSE; UniProt P63158 1-47, looked up, fragment)” it is “showed the activity of promoting the migration of bone marrow mesenchymal stem line MSC-1”. Turning to “1-48: peptide comprising the amino acid sequence of positions 1 to 48, produced using HEK293 (MGKGDPKKPRGKMSSYAFFVQTCREEHKKKHPDASVNFSEFSKKCSER; UniProt P09429 1-48, looked up, fragment)”, the “activity … of MSC-1” value was “showed the activity of promoting the migration of bone marrow mesenchymal stem line MSC-1”. On the same count and under the same terms, with “1-49: peptide comprising the amino acid sequence of positions 1 to 49, produced using HEK293 (MGKGDPKKPRGKMSSYAFFVQTCREEHKKKHPDASVNFSEFSKKCSERW; UniProt P09429 1-49, looked up, fragment)” the entry was “showed the activity of promoting the migration of bone marrow mesenchymal stem line MSC-1”. As to “1-50: peptide comprising the amino acid sequence of positions 1 to 50, produced using HEK293 (MGKGDPKKPRGKMSSYAFFVQTCREEHKKKHPDASVNFSEFSKKCSERWK; UniProt P63158 1-50, looked up, fragment)”, the “activity … of MSC-1” value is “showed the activity of promoting the migration of bone marrow mesenchymal stem line MSC-1”. In the case of “1-51: peptide comprising the amino acid sequence of positions 1 to 51, produced using HEK293 (MGKGDPKKPRGKMSSYAFFVQTCREEHKKKHPDASVNFSEFSKKCSERWKT; UniProt P09429 1-51, looked up, fragment)”, the “activity … of MSC-1” value is recorded as “showed the activity of promoting the migration of bone marrow mesenchymal stem line MSC-1”. Same read-out and setting: the entry for “1-52: peptide comprising the amino acid sequence of positions 1 to 52, produced using HEK293 (MGKGDPKKPRGKMSSYAFFVQTCREEHKKKHPDASVNFSEFSKKCSERWKTM; UniProt P09429 1-52, looked up, fragment)” is “showed the activity of promoting the migration of bone marrow mesenchymal stem line MSC-1”.

Still in this experiment, the particulars now being: synthetic peptides, 5 μM, FIGS. 8A and 8B.
On to “(10-25): synthetic peptide consisting of the amino acid sequence from positions 10 to 25 of HMGB1 (RGKMSSYAFFVQTCRE; UniProt P09429 10-25, looked up, fragment)”, for which the migration-promoting activity result is given as “strong migration-promoting activity”. The same measure, in the same setting: the entry for “(11-25): synthetic peptide consisting of the amino acid sequence from positions 11 to 25 of HMGB1 (GKMSSYAFFVQTCRE; UniProt P09429 11-25, looked up, fragment)” is “weak activity”. On the same count and under the same terms, with “(11-27): synthetic peptide consisting of the amino acid sequence from positions 11 to 27 of HMGB1 (GKMSSYAFFVQTCREEH; UniProt P09429 11-27, looked up, fragment)” the entry was “strong migration-promoting activity”. With “(11-28): synthetic peptide consisting of the amino acid sequence from positions 11 to 28 of HMGB1 (GKMSSYAFFVQTCREEHK; UniProt P09429 11-28, looked up, fragment)”, the migration-promoting activity result was “strong migration-promoting activity”. On the same count and under the same terms, the entry for “(11-29): synthetic peptide consisting of the amino acid sequence from positions 11 to 29 of HMGB1 (GKMSSYAFFVQTCREEHKK; UniProt P09429 11-29, looked up, fragment)” is “strong migration-promoting activity”; for “(12-25): synthetic peptide consisting of the amino acid sequence from positions 12 to 25 of HMGB1 (KMSSYAFFVQTCRE; UniProt P09429 12-25, looked up, fragment)” it is “weak activity”.

The same experiment, now with this note: synthetic peptides, 100 μg/ml, positive control 1-215(HEK), FIG. 7.
Regarding “(1-25): synthetic peptide consisting of the amino acid sequence from positions 1 to 25 of HMGB1 (MGKGDPKKPRGKMSSYAFFVQTCRE; UniProt P09429 1-25, looked up, fragment)”, the migration-promoting activity entry is recorded as “found to have the activity”. Turning to “(11-25): synthetic peptide consisting of the amino acid sequence from positions 11 to 25 of HMGB1 (GKMSSYAFFVQTCRE; UniProt P09429 11-25, looked up, fragment)”, the migration-promoting activity entry is listed as “found to have the activity”. Take “(11-30): synthetic peptide consisting of the amino acid sequence from positions 11 to 30 of HMGB1 (GKMSSYAFFVQTCREEHKKK; UniProt P09429 11-30, looked up, fragment)”: the migration-promoting activity result is reported as “activity comparable to or higher than that of the positive control”.

Turning to “(11-34): synthetic peptide consisting of the amino acid sequence from positions 11 to 34 of HMGB1 (GKMSSYAFFVQTCREEHKKKHPDA; UniProt P09429 11-34, looked up, fragment)”, the migration-promoting activity result was “activity comparable to or higher than that of the positive control”. On the same count and under the same terms, with “(11-44): synthetic peptide consisting of the amino acid sequence from positions 11 to 44 of HMGB1 (GKMSSYAFFVQTCREEHKKKHPDASVNFSEFSKK; UniProt P09429 11-44, looked up, fragment)” the entry was “activity comparable to or higher than that of the positive control”.
